Source: article PMC6698739, “Structural intermediates of a DNA–ligase complex illuminate the role of the catalytic metal ion and mechanism of phosphodiester bond formation” (Nucleic Acids Research, 2019)

Target: T1, Pmar-Lig (Prochlorococcus marinus, UniProt A0A0A2ACP7)
T1 construct: gene EU96_0746; codon-optimised synthetic gene in pDEST17; tag removed; three domains (DB, AD, OB); 432 residues modelled in wild-type crystals
Assay: X-ray crystal structure, […] A
Type: binding
Settings: post-step 3 complex with sealed DNA product; partial occupancy (adenine nucleobase 0.75, phosphate 0.5); some residual covalent DNA-adenylate; pH 6.5 crystallisation

T1 sequence (A0A0A2ACP7 entry or part of it): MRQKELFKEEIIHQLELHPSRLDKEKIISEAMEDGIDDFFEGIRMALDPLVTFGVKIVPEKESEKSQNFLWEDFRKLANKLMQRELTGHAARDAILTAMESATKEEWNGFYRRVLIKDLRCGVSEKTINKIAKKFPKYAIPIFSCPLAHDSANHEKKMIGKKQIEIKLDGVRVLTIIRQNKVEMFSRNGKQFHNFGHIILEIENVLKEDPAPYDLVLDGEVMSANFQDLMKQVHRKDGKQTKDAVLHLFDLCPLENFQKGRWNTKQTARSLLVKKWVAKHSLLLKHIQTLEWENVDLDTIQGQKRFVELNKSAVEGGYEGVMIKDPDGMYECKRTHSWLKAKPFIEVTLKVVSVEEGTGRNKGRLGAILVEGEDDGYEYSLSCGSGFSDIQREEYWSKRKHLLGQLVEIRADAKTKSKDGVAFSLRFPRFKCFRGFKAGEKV

Nc1ncnc2c1ncn2[C@@H]1O[C@H](COP(=O)(O)O)[C@@H](O)[C@H]1O [AMP]
X-ray crystal structure, 1.99 A: with the DNA product retained in the active site, as well as residual AMP
